What all share (assay type): cell-based
For one assay, the system named is Normal WI38 (NSC). Put plainly: Viability of normal WI38 cells (NSC), 72 h, PI staining and flow cytometry. As for the experimental part: (§1) Normal WI38 (NSC) and IR-induced senescent WI38 cells (IR-SC) were incubated with vehicle or increasing concentrations of compounds of Formula (I) or Formula (II) for 72 hours. The cells were digested with 0.25% trypsin and 1 mM EDTA, and harvested in PBS containing 2% FBS. After incubation with propidium iodide (PI, 100 ng/ml) in PBS at room temperature for 1 minute, cells were centrifuged at 1,200 rpm for 6 minutes to remove PI and then resuspended in PBS containing 2% FBS for analysis using a flow cytometer. Viable cells (PI-cells) were analyzed by flow cytometry at a constant flow rate to count the number of cells and calculated as a percentage of control cells treated with vehicle. Table 1 depicts the EC50 values of the compounds of Formula (I) and compounds of Formula (II) against normal WI38 and IR-induced senescent WI38.
In general terms: A flow cytometer gives signals particle by particle.

Assay [1] deals with T1, Bcl-xL (Homo sapiens, UniProt Q07817).
T1 construct: endogenous in cells; host or cells: WI38 cells (normal NC-WI38 and ionizing-radiation-induced senescent IR-SC WI38)
T1 sequence (Q07817 whole entry): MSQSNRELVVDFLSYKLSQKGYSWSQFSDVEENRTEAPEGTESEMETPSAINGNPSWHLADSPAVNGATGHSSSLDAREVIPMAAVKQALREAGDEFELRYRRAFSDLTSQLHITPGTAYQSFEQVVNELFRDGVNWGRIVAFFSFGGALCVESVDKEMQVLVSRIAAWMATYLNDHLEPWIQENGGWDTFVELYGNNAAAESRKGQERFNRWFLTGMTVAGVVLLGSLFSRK
Kind of assay: Protein degradation assay (Western blot) in IR-SC WI38 cells. The note with it: for Bcl-xL depletion in IR-SC WI38 cells: 1 μM (FIG. 4A). The procedure:
IR-SC WI38 cells were incubated with vehicle or increasing concentrations of XZ-14439 for 18 hours at increasing […] (FIG. 3A) and at a fixed concentration of XZ-14439 for increasing times (FIG. […]). The cells were digested with 0.25% trypsin and 1 mM EDTA, and harvested in RIPA lysis buffer with 1% Phosphatase Inhibitor Cocktail 3 and 1% Protease Inhibitor Cocktail. An equal amount of protein (15-30 μg/lane) from each cell extract was resolved on a 12% SDS-PAGE gel. Proteins were blotted onto a NOVEX PVDF membrane by electrophoresis. The membranes were blocked with TBS-T blocking buffer (5% nonfat milk in 25 mM Tris-HCL, pH 7.4; 3 mM KCl; […] NaCl; and 0.05% Tween) and probed with primary antibodies (at a predetermined optimal concentration) overnight at 4° C. or for 1 hour at room temperature. After extensive washing with TBS-T, the membranes were incubated with an appropriate peroxidase-conjugated secondary antibody for 1 hour at room temperature. After three washes with TBS-T, the proteins of interest were detected with ECL Western Blotting Detection Reagents and recorded with autoradiography (Pierce Biotech, Rockford, Ill., USA). The primary antibody Bcl-x (#2762), Bcl-2 antibody (#2872S) and β-actin (13E5, #4970) were purchased from Cell Signaling.
(§2) IR-SC WI38 (FIG. 4A) and RS4; 11 (FIG. 4B) cells were incubated with vehicle or increasing concentrations of compounds of Formula (I) or Formula (II) for 6 or 16 hours, at 1 μM (FIG. 4A) and 100 nm (FIG. 4B), respectively. The cells were harvested in RIPA lysis buffer with 1% Phosphatase Inhibitor Cocktail 3 and 1% Protease Inhibitor Cocktail. An equal amount of protein (15-30 μg/lane) from each cell extract was resolved on a 12% SDS-PAGE gel. Proteins were blotted onto a NOVEX PVDF membrane by electrophoresis. The membranes were blocked with TBS-T blocking buffer (5% nonfat milk in 25 mM Tris-HCL, pH 7.4; 3 mM KCl; 140 mM NaCl; and 0.05% Tween) and probed with primary antibodies (at a predetermined optimal concentration) overnight at 4° C. or for 1 hour at room temperature. After extensive washing with TBS-T, the membranes were incubated with an appropriate peroxidase-conjugated secondary antibody (Jackson ImmunoResearch Europe, Suffolk, UK) for 1 hour at room temperature. After three washes with TBS-T, the proteins of interest were detected with ECL Western Blotting Detection Reagents and recorded with autoradiography. The primary antibody Bcl-xl (#2762), Bcl-2 antibody (#2872S), Bcl-w (#2724S), Mcl-1 (#5453s) and β-actin (13E5, #4970) were purchased from Cell Signaling.
(In general: A western blot detects proteins with antibodies after separation by electrophoresis.)

In assay [2] the target is T1, Bcl-xL. Put plainly: Protein degradation assay (Western blot) in RS4;11 cells. Set-up: dose or concentration left out as unconfirmed. As for the experimental part: as §2, with “IR-SC WI38 (FIG. 4A) and RS4; 11 (FIG. 4B) cells were incubated with vehicle or increasing concentrations of compounds of Formula (I) or Formula (II) for 6 or 16 hours, at 1 μM (FIG. 4A) and 100 nm (FIG. 4B), respectively.” left out

Assay [3] relates to IR-induced senescent WI38 cells (IR-SC). Put plainly: Viability of IR-induced senescent WI38 cells (IR-SC), 72 h, PI staining and flow cytometry. The note with it: for EC50: IR-induced senescent WI38 cells, 72 hours, viable (PI-) cells as percentage of vehicle control; for Ratio NSC/SC: ratio of WI38 EC50 in NSC to EC50 in IR-SC. The procedure: as §1
The next assay relates to RS4; 11 cancer cells. Put plainly: Cancer cell viability by MTS, 72 h, RS4;11. The note with it: RS4;11 cells. The procedure: (§3) RS4; 11 and NCI-H146 cancer cells were incubated with vehicle or increasing concentrations of compounds of Formula (I) and Formula (II). At 72 hours post-treatment cell viability was measured by MTS and EC50 was calculated as a percentage of control cells treated with vehicle. Table 1 depicts the EC50 values of compounds of Formula (I) and Formula (II) against RS4; 11 and NCI-H146.

A further assay has as its system NCI-H146 cancer cells. Kind of assay: Cancer cell viability by MTS, 72 h, NCI-H146. Conditions: Homo sapiens. As for the experimental part:
as §3

Setting [4] is: Homo sapiens, WI-38, viable (PI-) cells as percentage of vehicle control.

The structures appear in SMILES notation.

For orientation: EC50 means the concentration needed to bring the measured effect to its halfway point. `CC1(C)CCC(c2ccc(Cl)cc2)=C(CN2CCN(c3ccc(C(=O)NS(=O)(=O)c4ccc(N[C@H](CCN5CCN(CCOCCOCCOCCNc6cccc7c6C(=O)N(C6CCC(=O)NC6=O)C7=O)CC5)CSc5ccccc5)c(S(=O)(=O)C(F)(F)F)c4)cc3)CC2)C1` (stereo partly drawn) [XZ-15418, 4-(4-((4′-chloro-4,4-dimethyl-3,4,5,6-tetrahydro-[1,1′-biphenyl]-2-yl)methy)piperazin-1-yl)-N-((4-(((2R)-4-(4-(2-(2-(2-(2-((2-(2,6-dioxopiperidin-3-yl)-1,3-dioxoisoindolin-4-yl)amino)ethoxy)ethoxy)ethoxy)ethyl)piperazin-1-yl)-1-(phenylthio)butan-2-yl)amino)-3-((trifluoromethyl)sulfonyl)phenyl)sulfonyl)benzamide]: the EC50 with Normal WI38 (NSC) (viable (PI-) cells as percentage of vehicle control) is more than 10 µM; in assay [3], 0.172 µM; in the assay on RS4; 11 cancer cells, 0.0123 µM. Also, the “Bcl-xL depletion in IR-SC WI38 cells” value on Bcl-xL [1] is “deplete Bcl-xL”. Besides, at Bcl-xL [2], the “Bcl-xL depletion in RS4; 11 cells” value is recorded as “deplete Bcl-xL”. Also, the “Ratio NSC/SC” value in assay [3] was more than 58.06.
On to `CC1(C)CCC(c2ccc(Cl)cc2)=C(CN2CCN(c3ccc(C(=O)NS(=O)(=O)c4ccc(N[C@H](CCN5CCN(C(=O)CCCn6cc(COCCOCCOCCNc7cccc8c7C(=O)N(C7CCC(=O)NC7=O)C8=O)nn6)CC5)CSc5ccccc5)c(S(=O)(=O)C(F)(F)F)c4)cc3)CC2)C1` (stereo partly drawn) [XZ-14439, 4-(4-((4′-chloro-4,4-dimethyl-3,4,5,6-tetrahydro-[1,1′-biphenyl]-2-yl)methyl)piperazin-1-yl)-N-((4-(((2R)-4-(4-(4-(4-((2-(2-(2-((2-(2,6-dioxopiperidin-1,3-yl)-1,3-dioxoisoindolin-4-yl)amino)ethoxy)ethoxy)ethoxy)methyl)-1H-1,2,3-triazol-1-yl)butanoyl)piperazin-1-yl)-1-(phenylthio)butan-2-yl)amino)-3-((trifluoromethyl)sulfonyl)phenyl)sulfonyl)benzamide], for which the EC50 was more than 20 µM in the assay on Normal WI38 (NSC) (setting [4]); 0.0696 µM with NCI-H146 cancer cells; 0.87 µM in assay [3] (Homo sapiens, WI-38); 0.0844 µM in the assay with RS4; 11 cancer cells (Homo sapiens). For the same compound, the “Bcl-xL depletion in IR-SC WI38 cells, dose and time dependence” value at Bcl-xL [1] (increasing concentrations for 18 hours (FIG. 3A), fixed concentration for increasing times (FIG. 3B)) was “depletes Bcl-xL in IR-SC WI38 cells in both a dose dependent (FIG. 3A) and time dependent (FIG. 3B) manner”. Also, in assay [3], the “Ratio NSC/SC” value is more than 20.88.
For the compound `CC1(C)CCC(c2ccc(Cl)cc2)=C(CN2CCN(c3ccc(C(=O)NS(=O)(=O)c4ccc(N[C@H](CCN5CCN(C(=O)Cn6cc(COCCOCCNc7cccc8c7C(=O)N(C7CCC(=O)NC7=O)C8=O)nn6)CC5)CSc5ccccc5)c(S(=O)(=O)C(F)(F)F)c4)cc3)CC2)C1` (some centres unmarked) [XZ-15421], the EC50 is more than 10 µM in the assay with Normal WI38 (NSC) (setting [4]); less than 0.156 µM in assay [3] (Homo sapiens, WI-38); 0.0729 µM in the assay on RS4; 11 cancer cells (Homo sapiens). Further, the “Bcl-xL depletion in IR-SC WI38 cells” value at Bcl-xL [1] was “deplete Bcl-xL”. Also, the “Bcl-xL depletion in RS4; 11 cells” value on Bcl-xL [2] is on record as “deplete Bcl-xL”. Also, the “Ratio NSC/SC” value in assay [3] is reported as more than 64.02.
For `Cc1ncsc1-c1ccc(CNC(=O)[C@@H]2C[C@@H](O)CN2C(=O)[C@@H](NC(=O)COCCOCCOCc2cn(CCCC(=O)N3CCN(CC#Cc4ccc(OCCCc5sc(N6CCc7cccc(C(=O)Nc8nc9ccccc9s8)c7C6)nc5C(=O)O)c(F)c4)CC3)nn2)C(C)(C)C)cc1` [XZ-14455, 2-(8-(benzo[d]thiazol-2-ylcarbamoyl)-3,4-dihydroisoquinolin-2(1H)-yl)-5-(3-(2-fluoro-4-(3-(4-(4-(4-((S)-12-((2S,4R)-4-hydroxy-2-((4-(4-methylthiazol-5-yl)benzyl)carbamoyl)pyrrolidine-1-carbonyl)-13,13-dimethyl-10-oxo-2,5,8-trioxa-11-azatetradecyl)-1H-1,2,3-triazol-1-yl)butanoyl)piperazin-1-yl)-prop-1-yn-1-yl)phenoxy)propyl)thiazole-4-carboxylic acid], the EC50 in the assay on Normal WI38 (NSC) (setting [4]) was 5 µM; with NCI-H146 cancer cells, more than 2 µM; in assay [3] (Homo sapiens, WI-38), 1.47 µM; in the assay on RS4; 11 cancer cells (Homo sapiens) it was more than 2 µM. In assay [3], the “Ratio NSC/SC” value came out at 3.40.
Consider `CC1(C)CCC(c2ccc(Cl)cc2)=C(CN2CCN(c3ccc(C(=O)NS(=O)(=O)c4ccc(N[C@H](CCN5CCN(C(=O)COCCOCCNc6cccc7c6C(=O)N(C6CCC(=O)NC6=O)C7=O)CC5)CSc5ccccc5)c(S(=O)(=O)C(F)(F)F)c4)cc3)CC2)C1` (some centres unmarked) [XZ-14515], for which the concentration giving a half-maximal response (EC50) in the assay with Normal WI38 (NSC) (setting [4]) is more than 10 µM; with NCI-H146 cancer cells, 0.0792 µM; in assay [3] (Homo sapiens, WI-38), 0.158 µM; with RS4; 11 cancer cells (Homo sapiens), 0.173 µM. The “Ratio NSC/SC” value in assay [3] is more than 63.27.
As to `Cc1ncsc1-c1ccc(CNC(=O)[C@@H]2C[C@@H](O)CN2C(=O)[C@@H](NC(=O)CCC(=O)NCCOCCOCCNC(=O)N2CCN(CC[C@H](CSc3ccccc3)Nc3ccc(S(=O)(=O)NC(=O)c4ccc(N5CCN(CC6=C(c7ccc(Cl)cc7)CCC(C)(C)C6)CC5)cc4)cc3S(=O)(=O)C(F)(F)F)CC2)C(C)(C)C)cc1` [XZ-14529], the EC50 is more than 10 µM with Normal WI38 (NSC) (setting [4]); more than 2 µM in the assay with NCI-H146 cancer cells; more than 10 µM in assay [3] (Homo sapiens, WI-38); 0.823 µM in the assay with RS4; 11 cancer cells (Homo sapiens).
With `CC1(C)CCC(c2ccc(Cl)cc2)=C(CN2CCN(c3ccc(C(=O)NS(=O)(=O)c4ccc(N[C@H](CCN5CCN(CCOCCOCCNc6cccc7c6C(=O)N(C6CCC(=O)NC6=O)C7=O)CC5)CSc5ccccc5)c(S(=O)(=O)C(F)(F)F)c4)cc3)CC2)C1` (stereo partly drawn) [XZ-15405, 4-(4-((4′-chloro-4,4-dimethyl-3,4,5,6-tetrahydro-[1,1′-biphenyl]-2-yl)methyl)piperazin-1-yl)-N-((4-(((2R)-4-(4-(2-(2-(2-((2-(2,6-dioxopiperidin-3-yl)-1,3-dioxoisoindolin-4-yl)amino)ethoxy)ethoxy)ethyl)piperazin-1-yl)-1-(phenylthio)butan-2-yl)amino)-3-((trifluoromethyl)sulfonyl)phenyl)sulfonyl)benzamide], the EC50 in the assay on Normal WI38 (NSC) (setting [4]) is more than 10 µM; in assay [3] (Homo sapiens, WI-38), 0.152 µM; with RS4; 11 cancer cells (Homo sapiens) it was 0.0248 µM. Moreover, the “Bcl-xL depletion in IR-SC WI38 cells” value on Bcl-xL [1] is listed as “deplete Bcl-xL”. Besides, the “Bcl-xL depletion in RS4; 11 cells” value on Bcl-xL [2] is reported as “deplete Bcl-xL”. Moreover, the “Ratio NSC/SC” value in assay [3] is more than 65.97.

The record behind these values is patent US11319316B2, “Compounds that induce degradation of anti-apoptotic Bcl-2 family proteins and the uses thereof” (BioVentures, LLC, priority 2016, dated 2022).
